Data: the supplement of paper PMC11451515

Assays:
[1] = tested on: NOMO1; assay: AUC of viability dose-response curve (% viability x log10 dose units); higher = less sensitive; conditions: 48 h
Summary of the method: (§1)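 Leukemia cells adapted to each medium (500 or 1000 cells/well, 1536-well plates) were exposed to library compounds in DMSO for 48 h at 37°C at 11 threefold doses, 47 μM to 0.79 nM. Luminescence by CellTiter-Glo One was normalised per plate to DMSO and cell-free wells, then fitted with a four-parameter log-logistic curve on log10 dose. Curves above full viability were scaled and quality-control failures removed before area under the curve was integrated by trapezoidal rule.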

[2] = tested on: P12-Ichikawa; assay: as above; conditions: 48 h
Summary of the method: as §1

[3] = tested on: SEM cells; assay: as above; conditions: 48 h
Summary of the method: as §1

[4] = tested on: NOMO1; assay: cell viability relative to DMSO control; higher = less cytotoxic; conditions: RPMI 5 mM glucose + 10% FBS, 48 h
Summary of the method: (§2)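 In 1536-well plates, 5 μl of leukemia cells were seeded per well: 500 cells/well for NOMO1 or SEM and 1000 cells/well for P12-Ichikawa. Each line had first been adapted for at least four passages in each medium. Library compounds in DMSO were pin-dosed at 11 threefold concentrations between 47 μM and 0.79 nM, and CellTiter-Glo One luminescence was read after 48 h at 37°C. Viability is a per-plate percentage relative to DMSO wells, with cell-free wells as background.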

[5] = tested on: SEM cells; assay: as above; conditions: 48 h
Summary of the method: as §2

COc1cc(C(C)C)c(Oc2cnc(NC(CO)CO)nc2N)cc1I
AUC of viability dose-response curve
Conditions	[1]	[2]	[3]
HPLM + 10% dialyzed FBS	468	464	458
RPMI 5 mM glucose + 10% FBS	436	466	442
RPMI 5 mM glucose + 10% dialyzed FBS	457	452	453

O=C(NCc1ccncc1)C12C[C@H]3C[C@@H](C1)CC(c1ccc(Cl)cc1)(C3)C2
AUC of viability dose-response curve
Conditions	[1]	[2]	[3]
HPLM + 10% dialyzed FBS	419	415	414
RPMI 5 mM glucose + 10% FBS	453	439	389
RPMI 5 mM glucose + 10% dialyzed FBS	451	438	420

OCc1ccccc1O[C@@H]1O[C@H](CO)[C@@H](O)[C@H](O)[C@H]1O
Conditions	AUC of viability dose-response curve	cell viability [%]
[1], HPLM + 10% dialyzed FBS	447	–
[1], RPMI 5 mM glucose + 10% FBS	463	–
[1], RPMI 5 mM glucose + 10% dialyzed FBS	458	–
[2], HPLM + 10% dialyzed FBS	464	–
[2], RPMI 5 mM glucose + 10% FBS	448	–
[2], RPMI 5 mM glucose + 10% dialyzed FBS	459	–
[3], HPLM + 10% dialyzed FBS	430	–
[3], RPMI 5 mM glucose + 10% FBS	372	–
[3], RPMI 5 mM glucose + 10% dialyzed FBS	426	–
[4], 0.000781 µM	–	120
[4], 0.00234 µM	–	116
[4], 0.00702 µM	–	139
[4], 0.0211 µM	–	128
[4], 0.0632 µM	–	126
[4], 0.19 µM	–	139
[4], 0.569 µM	–	138
[4], 1.71 µM	–	127
[4], 5.12 µM	–	129
[4], 15.4 µM	–	106
[4], 46.1 µM	–	98.7

[5], RPMI 5 mM glucose + 10% dialyzed FBS
Conditions	cell viability [%]
0.000781 µM	101
0.00234 µM	121
0.00702 µM	118
0.0211 µM	121
0.0632 µM	136
0.19 µM	148
0.569 µM	121
1.71 µM	117
5.12 µM	97.5
15.4 µM	61.8
46.1 µM	48.8

Fc1ccc(CNc2ncnc3ccc(F)cc23)cc1
AUC of viability dose-response curve
Conditions	HPLM + 10% dialyzed FBS	RPMI 5 mM glucose + 10% FBS	RPMI 5 mM glucose + 10% dialyzed FBS
[1]	445	452	419
[2]	453	429	429

CN[C@H](CC(C)C)C(=O)N[C@H]1C(=O)N[C@@H](CC(N)=O)C(=O)N[C@H]2C(=O)N[C@H]3C(=O)N[C@H](C(=O)N[C@H](C(=O)O)c4cc(O)cc(O)c4-c4cc3ccc4O)[C@H](O)c3ccc(c(Cl)c3)Oc3cc2cc(c3O[C@@H]2O[C@H](CO)[C@@H](O)[C@H](O)[C@H]2O[C@H]2C[C@](C)(N)[C@H](O)[C@H](C)O2)Oc2ccc(cc2Cl)[C@H]1O
cell viability [%], [5]
Conditions	HPLM + 10% dialyzed FBS	RPMI 5 mM glucose + 10% FBS	RPMI 5 mM glucose + 10% dialyzed FBS
0.000781 µM	94.2	127	112
0.00234 µM	94.3	114	126
0.00702 µM	124	120	125
0.0211 µM	112	130	138
0.0632 µM	125	144	126
0.19 µM	111	143	114
0.569 µM	128	148	131
1.71 µM	89	126	95.9
5.12 µM	126	138	138
15.4 µM	129	131	118
46.1 µM	122	142	110

AUC of viability dose-response curve
Conditions	[1]	[2]	[3]
HPLM + 10% dialyzed FBS	439	457	463
RPMI 5 mM glucose + 10% FBS	468	462	458
RPMI 5 mM glucose + 10% dialyzed FBS	475	454	473

C\C1=N\N=C(\C2=CC=C(N)C=C2)C3=CC4=C(OCO4)C=C3C1
[5], HPLM + 10% dialyzed FBS
Conditions	cell viability [%]
0.000781 µM	129
0.00234 µM	115
0.00702 µM	122
0.0211 µM	136
0.0632 µM	126
0.19 µM	123
0.569 µM	131
1.71 µM	131
5.12 µM	150
15.4 µM	138
46.1 µM	107

AUC of viability dose-response curve
Conditions	[1]	[2]	[3]
HPLM + 10% dialyzed FBS	471	469	467
RPMI 5 mM glucose + 10% FBS	471	465	470
RPMI 5 mM glucose + 10% dialyzed FBS	464	465	464

Cn1c2ccccc2c2c3c(c4c5ccccc5n(CCC#N)c4c21)CNC3=O
cell viability [%], [5]
Conditions	HPLM + 10% dialyzed FBS	RPMI 5 mM glucose + 10% dialyzed FBS
0.000781 µM	109	123
0.00234 µM	118	103
0.00702 µM	142	159
0.0211 µM	119	130
0.0632 µM	111	124
0.19 µM	98.1	107
0.569 µM	55	52.7
1.71 µM	41	39.4
5.12 µM	25.7	19
15.4 µM	18.8	18.5
46.1 µM	17.6	11.2

AUC of viability dose-response curve
Conditions	[1]	[2]	[3]
HPLM + 10% dialyzed FBS	362	393	305
RPMI 5 mM glucose + 10% FBS	376	363	308
RPMI 5 mM glucose + 10% dialyzed FBS	367	367	300

COc1ccc(N(C(=O)Oc2c(C)cccc2C)c2ccnc(Nc3ccc(N4CCN(C)CC4)cc3)n2)c(OC)c1
AUC of viability dose-response curve
Conditions	HPLM + 10% dialyzed FBS	RPMI 5 mM glucose + 10% FBS	RPMI 5 mM glucose + 10% dialyzed FBS
[2]	466	457	459
[3]	456	455	451

O=C([O-])Cc1ccccc1Nc1c(Cl)cccc1Cl
cell viability [%], [5]
Conditions	HPLM + 10% dialyzed FBS	RPMI 5 mM glucose + 10% FBS
0.000781 µM	109	126
0.00234 µM	121	113
0.00702 µM	110	113
0.0211 µM	125	109
0.0632 µM	126	123
0.19 µM	129	112
0.569 µM	117	111
1.71 µM	122	111
5.12 µM	75.7	69.1
15.4 µM	112	108
46.1 µM	65.9	49

AUC of viability dose-response curve
Conditions	[1]	[2]	[3]
HPLM + 10% dialyzed FBS	454	447	442
RPMI 5 mM glucose + 10% FBS	455	445	429
RPMI 5 mM glucose + 10% dialyzed FBS	458	447	430

CC(C)NCC(O)c1ccc(O)c(O)c1 (configuration not stated)
AUC of viability dose-response curve
Conditions	[1]	[2]	[3]
HPLM + 10% dialyzed FBS	376	389	455
RPMI 5 mM glucose + 10% FBS	389	394	427
RPMI 5 mM glucose + 10% dialyzed FBS	391	407	457

CNC(=O)c1ccccc1Nc1nc(Nc2ccc(N3CCOCC3)cc2OC)ncc1Cl
AUC of viability dose-response curve
Conditions	[1]	[2]	[3]
HPLM + 10% dialyzed FBS	387	408	349
RPMI 5 mM glucose + 10% FBS	397	404	332
RPMI 5 mM glucose + 10% dialyzed FBS	377	416	337

COCCCOc1cc(C[C@@H](C[C@H](N)[C@@H](O)C[C@H](C(=O)NCC(C)(C)C(N)=O)C(C)C)C(C)C)ccc1OC
AUC of viability dose-response curve
Conditions	[1]	[2]	[3]
HPLM + 10% dialyzed FBS	457	473	473
RPMI 5 mM glucose + 10% FBS	474	471	461
RPMI 5 mM glucose + 10% dialyzed FBS	461	475	458
